Experimental data: PubChem BioAssay (NCI)
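How tested: cells in 96-well plates exposed to compound for 48 hours at five concentrations. GI50 = concentration required for 50% inhibition of growth. Definition used: TGI = concentration required for complete inhibition of growth.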

Columns and labels:
Experiment in all cases: inhibition of tumour cell growth, NCI panel, 48 h
OVCAR-3 ovarian = system: OVCAR-3 ovarian
IGROV1 ovarian = system: IGROV1 ovarian
RPMI-8226 leukemia = system: RPMI-8226 leukemia
M14 melanoma = system: M14 melanoma
A498 renal = system: A498 renal
SN12C renal = system: SN12C renal
KM12 colon = system: KM12 colon
BT-549 breast = system: BT-549 breast
CAKI-1 renal = system: CAKI-1 renal
HCT-116 colon = system: HCT-116 colon
HOP-62 NSCLC = system: HOP-62 NSCLC

| Compound | TGI (OVCAR-3 ovarian) [µM] | TGI (IGROV1 ovarian) [µM] | TGI (RPMI-8226 leukemia) [µM] | TGI (M14 melanoma) [µM] | TGI (A498 renal) [µM] | TGI (SN12C renal) [µM] | TGI (KM12 colon) [µM] | TGI (BT-549 breast) [µM] | TGI (CAKI-1 renal) [µM] | TGI (HCT-116 colon) [µM] | TGI (HOP-62 NSCLC) [µM] | GI50 (IGROV1 ovarian) [µM] | GI50 (OVCAR-3 ovarian) [µM] | GI50 (RPMI-8226 leukemia) [µM] | GI50 (A498 renal) [µM] | GI50 (SN12C renal) [µM] | GI50 (KM12 colon) [µM] | GI50 (BT-549 breast) [µM] | GI50 (CAKI-1 renal) [µM] | GI50 (HCT-116 colon) [µM] |
| --- | --- | --- | --- | --- | --- | --- | --- | --- | --- | --- | --- | --- | --- | --- | --- | --- | --- | --- | --- | --- |
| O=C(O)C(O)C(O)C(O)C(=O)CO (stereo unspecified) | > 100 | > 100 | > 100 | > 100 | > 100 | > 100 | > 100 | > 100 | > 100 | > 100 | > 100 |  |  |  |  |  |  |  |  |  |
| Nc1ccc(-c2nc3cc(F)ccc3s2)cc1CO | > 100 | 63.4 | > 100 | > 100 | 0.0141 | > 100 | > 100 | 51.2 | > 100 | > 100 | 52.1 |  |  |  |  |  |  |  |  |  |
| O=S(=O)(O)c1cc(N=[N+]([O-])c2cc(S(=O)(=O)O)c3ccccc3c2)cc2ccccc12 | 28.2 | > 100 | > 100 | > 100 | > 100 | 53.8 | > 100 | 39 | 44.4 | > 100 | > 100 |  |  |  |  |  |  |  |  |  |
| Cc1ccccc1NC(=O)CC(=O)N1N=C(N2c3ccccc3Sc3ccccc32)CC1c1ccccc1 (stereo unspecified) | > 100 | > 100 | > 100 | > 100 | > 100 | > 100 | > 100 |  | > 100 | > 100 | > 100 |  |  |  |  |  |  |  |  |  |
| O=C1/C(=C\c2ccc(F)cc2)CCOc2c1ccc1ccccc21 | 27.9 | > 100 | 9.45 | 82.7 | > 62.1 | > 89.2 | 31.5 | 77.3 | > 81.6 | 10.7 | 63.8 | > 100 |  |  |  |  |  |  |  |  |
| COc1ccc(C2c3cc4c(cc3OC(O)(CO)C2C(=O)O)OCO4)cc1 (stereo unspecified) (tested in a mixture with another compound) | 54.4 | 43.5 | 49.5 | 29.1 | > 100 | 54.1 | 67.2 |  |  | 33.1 | > 100 |  |  |  |  |  |  |  |  |  |
| O=c1[nH]c(Nc2ccc(Cl)cc2)nc2nc[nH]c12 | > 100 | > 100 | > 100 | > 100 | > 100 | > 100 | > 100 | > 100 | > 100 | > 100 | > 100 |  |  |  |  |  |  |  |  |  |
| C1=CC(=[N+]2N=C(c3ccccc3)CC2c2ccccc2)C=CC1=C1SC(c2ccccc2)(c2ccccc2)c2ccccc21 (stereo unspecified) | > 100 | > 100 |  | > 100 | > 100 | > 100 | > 100 | > 100 |  | > 100 | > 100 |  |  |  |  |  |  |  |  |  |
| O=C1c2ccccc2C(C2c3ccccc3C(=O)c3cc(Br)ccc32)c2ccc(Br)cc21 (stereo unspecified) | > 100 | > 100 | > 100 | > 100 | > 100 | > 100 | > 100 | > 100 | > 100 | > 100 | > 100 |  |  |  |  |  |  |  |  |  |
| CC(C)C1OC(=O)/C=C/C=C/C=C/C=C/C=C/CC(O)C(C)C(O)CC(O)CC(O)CC(O)CC(O)CC(O)CC(O)/C=C/C1C (stereo unspecified) | > 100 | > 100 | > 100 | > 100 | > 100 |  | > 100 |  |  |  | > 100 |  |  |  |  |  |  |  |  |  |
| CSCCC(NC(=O)OCc1ccccc1)P(=O)(O)c1ccccc1 (stereo unspecified) | > 100 | > 100 | > 100 | > 100 |  | > 100 |  |  | > 100 | > 100 | > 100 |  |  |  |  |  |  |  |  |  |
| CCOC(=O)C(=O)NCCCN1CCOCC1 | > 100 | > 100 |  | > 100 | > 100 | > 100 | > 100 |  | > 100 | > 100 | > 100 |  |  |  |  |  |  |  |  |  |
| CCCN1C(=O)CSC1=Nc1ccc2cc3ccc(N=C4SCC(=O)N4CCC)cc3nc2c1 | 67.6 |  | > 100 |  | > 100 | > 100 | > 100 | > 100 | > 100 | 34.8 |  |  | 22 | 7.4 | > 100 | > 100 | 35.9 | 46.5 | > 100 | 14.3 |
| C/C(N=Nc1nc2ccccc2[nH]1)=C1/C=CC=CN1O | > 100 | > 100 | > 100 | > 100 | > 100 | > 100 | > 100 | > 100 | > 100 | > 100 | > 100 |  |  |  |  |  |  |  |  |  |
| COC(=S)OC1CC(n2cnc3c(N)ncnc32)OC1CO[Si](C)(C)C(C)(C)C (stereo unspecified) | 31 | 43.8 | > 100 | 43.3 | 56.9 | 48.6 | 89.8 | 64.1 |  | 31.3 | 32.8 |  |  |  |  |  |  |  |  |  |
| O=C1CC2(CCC(O)(c3cccs3)C(C(=O)c3cccs3)C2)C(=O)c2ccccc2N1 (stereo unspecified) | > 100 | > 100 |  | > 100 | > 100 | > 100 |  | > 100 | > 100 | > 100 | > 100 |  |  |  |  |  |  |  |  |  |
| COC1CC(CC2CCC(C)C(C(C)C(=O)O)O2)OC2(OC(C)(C3CCC(C)(C4OC(C5OC(O)(CO)C(C)CC5C)CC4C)O3)CC2C)C1C (stereo unspecified) | 14 | 66.9 | 8.39 | 5.82 | 3.39 | 23.7 | 11.9 | 27.7 | 38.3 | 15.6 | 19.6 |  |  |  |  |  |  |  |  |  |
